According to patent publication US9598414B2, “Substituted benzo[5,6]azepino[3,2,1-hi]pyrido[4,3-b]indoles and substituted benzo[6,7][1,4]oxazepino[2,3,4-hi]pyrido[4,3-b]indoles for treating CNS disorders” (Daya Drug Discoveries, Inc., priority 2013, dated 2017):
Where two headings read alike, the source gives them in different places.

What was measured:
Histamine H1 = Histamine H1 (Homo sapiens, UniProt P35367); test: Receptor binding, H1; settings: for Ki: H1
α-Adrenergic α1D = α-Adrenergic α1D (Homo sapiens, UniProt P25100); test: Receptor binding, α1D
Serotonin 5-HT6 = Serotonin 5-HT6 (Homo sapiens, UniProt P50406); test: Receptor binding, 5-HT6; settings: for Ki: 5-HT6
Serotonin 5-HT1D = Serotonin 5-HT1D (Homo sapiens, UniProt P28221); test: Receptor binding, 5-HT1D
Serotonin transporter = Serotonin transporter (Homo sapiens, UniProt P31645); test: Receptor binding, serotonin transporter
α-Adrenergic α2C = target: T1, α-Adrenergic α2C (Homo sapiens, UniProt P18825); test: Receptor binding, α2C
T1 sequence (P18825 1-462): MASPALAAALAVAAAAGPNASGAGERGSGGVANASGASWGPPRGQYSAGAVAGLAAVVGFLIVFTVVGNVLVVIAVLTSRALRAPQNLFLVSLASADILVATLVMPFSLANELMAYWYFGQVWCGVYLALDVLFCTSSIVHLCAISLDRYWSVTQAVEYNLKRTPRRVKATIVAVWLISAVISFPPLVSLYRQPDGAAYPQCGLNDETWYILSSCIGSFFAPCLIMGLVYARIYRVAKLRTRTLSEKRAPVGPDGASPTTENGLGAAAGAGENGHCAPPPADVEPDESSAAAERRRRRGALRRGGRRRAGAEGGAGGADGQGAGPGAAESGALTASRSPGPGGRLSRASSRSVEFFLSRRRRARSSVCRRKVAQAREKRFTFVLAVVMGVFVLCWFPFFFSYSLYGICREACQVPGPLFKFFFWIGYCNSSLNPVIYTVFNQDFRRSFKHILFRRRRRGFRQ

Histamine H2 = Histamine H2 (Homo sapiens, UniProt P25021); test: Receptor binding, H2
Dopamine D2 = Dopamine D2 (Homo sapiens, UniProt P14416); test: Receptor binding, D2
Serotonin 5-HT2B = Serotonin 5-HT2B (Homo sapiens, UniProt P41595); test: Receptor binding, 5-HT2B
Serotonin 5-HT1A = target: T2, Serotonin 5-HT1A (Homo sapiens, UniProt P08908); test: Receptor binding, 5-HT1A
T2 sequence (P08908 1-422): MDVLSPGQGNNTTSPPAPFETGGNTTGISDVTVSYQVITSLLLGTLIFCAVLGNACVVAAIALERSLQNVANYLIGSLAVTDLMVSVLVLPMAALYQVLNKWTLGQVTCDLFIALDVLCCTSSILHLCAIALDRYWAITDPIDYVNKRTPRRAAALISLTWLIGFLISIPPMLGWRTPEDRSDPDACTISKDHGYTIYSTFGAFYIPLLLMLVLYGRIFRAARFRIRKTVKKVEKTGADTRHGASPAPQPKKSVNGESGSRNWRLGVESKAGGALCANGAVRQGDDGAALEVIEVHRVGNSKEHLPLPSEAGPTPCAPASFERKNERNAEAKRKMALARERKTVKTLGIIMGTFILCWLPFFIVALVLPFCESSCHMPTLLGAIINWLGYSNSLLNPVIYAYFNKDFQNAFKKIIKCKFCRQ

Opioid κ = Opioid κ (Homo sapiens, UniProt P41145); test: Receptor binding, opioid κ
Serotonin 5-HT2C = target: T3, Serotonin 5-HT2C (Homo sapiens, UniProt P28335); test: Receptor binding, 5-HT2C; settings: 5-HT2C
T3 sequence (P28335 33-458): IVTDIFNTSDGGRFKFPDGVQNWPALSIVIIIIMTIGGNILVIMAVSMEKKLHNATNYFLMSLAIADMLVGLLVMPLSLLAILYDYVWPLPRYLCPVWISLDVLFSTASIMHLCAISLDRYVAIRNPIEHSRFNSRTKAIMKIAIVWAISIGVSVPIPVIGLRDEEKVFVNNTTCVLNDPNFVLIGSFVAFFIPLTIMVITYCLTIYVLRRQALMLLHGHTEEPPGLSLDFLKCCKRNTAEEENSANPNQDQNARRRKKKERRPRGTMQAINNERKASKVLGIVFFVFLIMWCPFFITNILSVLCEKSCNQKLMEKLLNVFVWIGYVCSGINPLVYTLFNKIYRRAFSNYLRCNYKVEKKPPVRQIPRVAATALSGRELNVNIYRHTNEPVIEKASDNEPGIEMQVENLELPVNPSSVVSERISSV

α-Adrenergic α1B = α-Adrenergic α1B (Homo sapiens, UniProt P35368); test: Receptor binding, α1B
α-Adrenergic α2B = target: T4, α-Adrenergic α2B (Homo sapiens, UniProt P18089); test: Receptor binding, α2B
T4 sequence (P18089 1-450): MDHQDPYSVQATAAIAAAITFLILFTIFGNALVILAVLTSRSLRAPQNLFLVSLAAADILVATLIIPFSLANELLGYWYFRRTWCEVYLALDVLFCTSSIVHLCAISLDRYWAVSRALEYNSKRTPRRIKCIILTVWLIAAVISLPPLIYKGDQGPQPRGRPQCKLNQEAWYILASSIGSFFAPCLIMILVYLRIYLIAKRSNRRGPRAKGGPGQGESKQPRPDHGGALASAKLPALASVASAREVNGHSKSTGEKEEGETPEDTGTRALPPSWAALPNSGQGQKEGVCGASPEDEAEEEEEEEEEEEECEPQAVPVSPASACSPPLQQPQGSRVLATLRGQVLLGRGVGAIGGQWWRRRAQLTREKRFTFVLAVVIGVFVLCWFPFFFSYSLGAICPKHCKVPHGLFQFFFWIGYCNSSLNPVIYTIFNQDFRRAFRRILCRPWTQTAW

Muscarinic M5 = Muscarinic M5 (Homo sapiens, UniProt P08912); test: Receptor binding, M5
Serotonin 5-HT2A = Serotonin 5-HT2A (Homo sapiens, UniProt P28223); test: Receptor binding, 5-HT2A
Muscarinic M1 = Muscarinic M1 (Homo sapiens, UniProt P11229); test: Receptor binding, M1
Dopamine D5 = Dopamine D5 (Homo sapiens, UniProt P21918); test: Receptor binding, D5
α-Adrenergic α1A = α-Adrenergic α1A (Homo sapiens, UniProt P35348); test: Receptor binding, α1A
α-Adrenergic α2A = target: T5, α-Adrenergic α2A (Homo sapiens, UniProt P08913); test: Receptor binding, α2A
T5 sequence (P08913 1-465): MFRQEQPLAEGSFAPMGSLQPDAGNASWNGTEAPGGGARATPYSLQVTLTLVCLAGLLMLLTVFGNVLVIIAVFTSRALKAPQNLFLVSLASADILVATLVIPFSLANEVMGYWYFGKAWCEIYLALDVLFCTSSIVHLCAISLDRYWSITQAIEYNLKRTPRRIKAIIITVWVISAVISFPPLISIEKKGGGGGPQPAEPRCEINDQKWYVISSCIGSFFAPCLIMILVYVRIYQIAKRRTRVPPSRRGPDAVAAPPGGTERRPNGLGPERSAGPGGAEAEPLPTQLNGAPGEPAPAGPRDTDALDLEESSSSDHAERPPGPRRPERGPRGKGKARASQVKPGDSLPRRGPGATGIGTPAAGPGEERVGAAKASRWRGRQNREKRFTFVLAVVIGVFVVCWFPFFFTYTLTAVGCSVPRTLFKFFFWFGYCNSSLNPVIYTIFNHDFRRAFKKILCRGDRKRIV

Sigma σ2 = Sigma σ2 (Homo sapiens, UniProt Q5BJF2); test: Receptor binding, σ2; settings: σ2
Serotonin 5-HT1E = Serotonin 5-HT1E (Homo sapiens, UniProt P28566); test: Receptor binding, 5-HT1E
Serotonin 5-HT7 = Serotonin 5-HT7 (Homo sapiens, UniProt P34969); test: Receptor binding, 5-HT7; settings: for Ki: 5-HT7
Serotonin 5-HT1B = Serotonin 5-HT1B (Homo sapiens, UniProt P28222); test: Receptor binding, 5-HT1B
Serotonin 5-HT5A = Serotonin 5-HT5A (Homo sapiens, UniProt P47898); test: Receptor binding, 5-HT5A
Muscarinic M3 = Muscarinic M3 (Homo sapiens, UniProt P20309); test: Receptor binding, M3
Dopamine D3 = Dopamine D3 (Homo sapiens, UniProt P35462); test: Receptor binding, D3
[1] = target: Norepinephrine transporter (Homo sapiens, UniProt P23975); test: Receptor binding, norepinephrine transporter; settings: Transporters: Norepinephrine
dopamine receptors = test: Receptor binding, dopamine receptors; settings: any of the dopamine receptors, summary of Table 1

Chain of Serotonin 5-HT1D (P28221 whole entry): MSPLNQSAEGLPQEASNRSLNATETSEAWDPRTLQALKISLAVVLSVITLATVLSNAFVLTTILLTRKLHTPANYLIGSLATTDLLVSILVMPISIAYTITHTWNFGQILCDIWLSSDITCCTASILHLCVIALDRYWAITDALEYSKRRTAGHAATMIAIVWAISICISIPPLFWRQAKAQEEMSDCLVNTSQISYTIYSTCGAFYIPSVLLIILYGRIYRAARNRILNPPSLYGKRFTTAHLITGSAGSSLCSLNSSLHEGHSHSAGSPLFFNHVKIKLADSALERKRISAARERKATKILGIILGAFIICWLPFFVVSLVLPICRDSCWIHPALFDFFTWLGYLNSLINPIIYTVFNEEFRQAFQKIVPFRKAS
Chain of Histamine H1 (P35367 whole entry): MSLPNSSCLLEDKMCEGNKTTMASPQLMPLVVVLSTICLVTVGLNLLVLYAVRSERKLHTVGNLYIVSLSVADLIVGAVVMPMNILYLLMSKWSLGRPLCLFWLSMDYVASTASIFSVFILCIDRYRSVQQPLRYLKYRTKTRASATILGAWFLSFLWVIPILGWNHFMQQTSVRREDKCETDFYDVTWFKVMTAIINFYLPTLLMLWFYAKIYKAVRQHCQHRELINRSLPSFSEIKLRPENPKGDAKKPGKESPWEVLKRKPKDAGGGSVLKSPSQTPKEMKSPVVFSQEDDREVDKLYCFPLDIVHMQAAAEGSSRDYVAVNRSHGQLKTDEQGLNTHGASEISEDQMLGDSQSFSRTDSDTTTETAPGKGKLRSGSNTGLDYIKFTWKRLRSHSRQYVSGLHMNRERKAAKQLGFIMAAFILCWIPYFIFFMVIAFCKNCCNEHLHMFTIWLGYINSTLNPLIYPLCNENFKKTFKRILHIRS
Chain of Serotonin 5-HT6 (P50406 whole entry): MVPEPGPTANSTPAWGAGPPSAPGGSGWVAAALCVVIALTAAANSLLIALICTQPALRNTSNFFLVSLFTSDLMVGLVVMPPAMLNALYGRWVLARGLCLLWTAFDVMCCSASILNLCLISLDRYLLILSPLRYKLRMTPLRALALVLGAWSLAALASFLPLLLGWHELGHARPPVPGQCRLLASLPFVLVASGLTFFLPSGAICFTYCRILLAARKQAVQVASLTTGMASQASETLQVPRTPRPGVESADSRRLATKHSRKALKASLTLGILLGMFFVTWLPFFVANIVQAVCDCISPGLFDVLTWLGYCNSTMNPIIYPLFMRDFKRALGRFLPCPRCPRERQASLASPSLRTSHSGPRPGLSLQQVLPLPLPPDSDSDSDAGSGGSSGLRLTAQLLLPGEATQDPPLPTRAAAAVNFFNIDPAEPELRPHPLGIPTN
Chain of Serotonin 5-HT7 (P34969 whole entry): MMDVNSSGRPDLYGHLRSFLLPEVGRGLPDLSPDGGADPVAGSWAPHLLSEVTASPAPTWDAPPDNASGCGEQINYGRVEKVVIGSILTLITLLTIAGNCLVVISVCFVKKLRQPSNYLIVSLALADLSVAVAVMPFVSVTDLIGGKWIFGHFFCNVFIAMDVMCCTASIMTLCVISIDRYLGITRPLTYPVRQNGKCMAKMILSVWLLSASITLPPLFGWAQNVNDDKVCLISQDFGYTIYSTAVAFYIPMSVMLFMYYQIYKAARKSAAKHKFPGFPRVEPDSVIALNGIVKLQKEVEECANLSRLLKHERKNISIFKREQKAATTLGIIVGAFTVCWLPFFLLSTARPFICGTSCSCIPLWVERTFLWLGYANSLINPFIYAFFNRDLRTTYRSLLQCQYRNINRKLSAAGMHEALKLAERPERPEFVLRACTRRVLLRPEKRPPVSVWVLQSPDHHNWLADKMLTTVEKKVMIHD
Chain of Serotonin 5-HT2B (P41595 whole entry): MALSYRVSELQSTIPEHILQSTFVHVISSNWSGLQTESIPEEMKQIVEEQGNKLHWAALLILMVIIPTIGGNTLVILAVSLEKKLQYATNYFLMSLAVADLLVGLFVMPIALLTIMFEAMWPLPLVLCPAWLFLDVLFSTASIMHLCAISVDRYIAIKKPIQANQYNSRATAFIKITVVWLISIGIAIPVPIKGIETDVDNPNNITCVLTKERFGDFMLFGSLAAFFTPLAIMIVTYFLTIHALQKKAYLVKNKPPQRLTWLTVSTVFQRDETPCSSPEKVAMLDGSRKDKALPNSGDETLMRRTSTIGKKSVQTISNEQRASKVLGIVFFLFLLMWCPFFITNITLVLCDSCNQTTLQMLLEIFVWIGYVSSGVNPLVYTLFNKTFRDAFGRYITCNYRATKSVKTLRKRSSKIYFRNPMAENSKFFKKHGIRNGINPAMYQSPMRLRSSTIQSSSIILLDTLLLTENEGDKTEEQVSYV
Chain of Sigma σ2 (Q5BJF2 whole entry): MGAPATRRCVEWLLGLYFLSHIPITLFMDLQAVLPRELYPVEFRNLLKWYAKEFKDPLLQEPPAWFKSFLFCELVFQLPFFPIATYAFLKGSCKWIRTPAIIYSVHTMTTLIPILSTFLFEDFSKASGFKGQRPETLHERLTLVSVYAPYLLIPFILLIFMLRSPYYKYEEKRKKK
Chain of Serotonin transporter (P31645 whole entry): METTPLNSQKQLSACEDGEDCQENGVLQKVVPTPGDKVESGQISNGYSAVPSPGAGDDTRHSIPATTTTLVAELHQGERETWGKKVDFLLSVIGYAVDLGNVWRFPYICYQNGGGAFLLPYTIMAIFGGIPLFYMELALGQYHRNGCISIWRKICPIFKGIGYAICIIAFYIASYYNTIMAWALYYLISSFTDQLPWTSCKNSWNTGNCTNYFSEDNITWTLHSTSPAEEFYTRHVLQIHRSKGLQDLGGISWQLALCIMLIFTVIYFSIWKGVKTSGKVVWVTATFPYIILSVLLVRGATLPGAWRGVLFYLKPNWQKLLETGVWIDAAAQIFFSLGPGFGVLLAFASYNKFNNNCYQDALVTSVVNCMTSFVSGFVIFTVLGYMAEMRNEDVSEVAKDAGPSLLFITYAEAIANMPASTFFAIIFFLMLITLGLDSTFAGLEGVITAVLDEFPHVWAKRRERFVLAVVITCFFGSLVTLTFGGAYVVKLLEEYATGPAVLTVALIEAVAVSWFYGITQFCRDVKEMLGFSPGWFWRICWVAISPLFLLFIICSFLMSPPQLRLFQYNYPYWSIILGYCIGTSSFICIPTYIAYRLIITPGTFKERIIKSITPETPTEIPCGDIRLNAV
Chain of Serotonin 5-HT1B (P28222 whole entry): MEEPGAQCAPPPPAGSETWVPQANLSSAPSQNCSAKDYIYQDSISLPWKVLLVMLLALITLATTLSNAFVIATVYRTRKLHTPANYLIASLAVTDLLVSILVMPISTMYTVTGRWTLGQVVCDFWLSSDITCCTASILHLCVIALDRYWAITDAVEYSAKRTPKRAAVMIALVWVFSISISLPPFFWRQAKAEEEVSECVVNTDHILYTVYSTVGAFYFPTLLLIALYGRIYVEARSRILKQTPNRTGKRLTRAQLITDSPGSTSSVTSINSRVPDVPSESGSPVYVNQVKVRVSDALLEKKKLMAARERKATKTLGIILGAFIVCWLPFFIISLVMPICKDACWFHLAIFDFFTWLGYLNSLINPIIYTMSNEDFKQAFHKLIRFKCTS
Chain of Serotonin 5-HT2A (P28223 whole entry): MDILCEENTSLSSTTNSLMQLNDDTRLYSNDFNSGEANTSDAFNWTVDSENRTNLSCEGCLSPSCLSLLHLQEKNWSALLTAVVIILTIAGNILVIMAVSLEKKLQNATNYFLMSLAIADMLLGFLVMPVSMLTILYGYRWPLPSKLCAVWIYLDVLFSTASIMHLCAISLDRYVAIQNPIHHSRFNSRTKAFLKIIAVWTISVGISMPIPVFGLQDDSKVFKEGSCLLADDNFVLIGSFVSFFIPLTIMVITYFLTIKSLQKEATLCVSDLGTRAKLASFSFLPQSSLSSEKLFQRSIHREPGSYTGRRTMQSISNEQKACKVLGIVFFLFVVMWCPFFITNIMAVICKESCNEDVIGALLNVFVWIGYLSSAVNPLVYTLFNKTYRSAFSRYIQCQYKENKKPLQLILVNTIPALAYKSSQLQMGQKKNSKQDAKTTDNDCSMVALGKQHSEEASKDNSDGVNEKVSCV
Chain of Muscarinic M1 (P11229 whole entry): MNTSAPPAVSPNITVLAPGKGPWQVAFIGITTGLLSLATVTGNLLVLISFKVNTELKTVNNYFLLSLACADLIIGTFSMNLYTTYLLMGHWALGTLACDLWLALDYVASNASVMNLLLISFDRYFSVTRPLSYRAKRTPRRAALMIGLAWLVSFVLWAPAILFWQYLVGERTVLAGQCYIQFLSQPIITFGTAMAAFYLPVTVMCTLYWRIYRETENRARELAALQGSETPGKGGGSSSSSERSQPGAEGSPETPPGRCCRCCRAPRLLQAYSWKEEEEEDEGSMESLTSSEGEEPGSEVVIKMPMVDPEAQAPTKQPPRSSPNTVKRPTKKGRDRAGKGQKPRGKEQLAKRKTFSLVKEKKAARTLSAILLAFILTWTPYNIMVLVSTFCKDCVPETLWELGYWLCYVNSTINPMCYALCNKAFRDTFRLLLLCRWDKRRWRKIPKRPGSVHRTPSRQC
Chain of Muscarinic M5 (P08912 whole entry): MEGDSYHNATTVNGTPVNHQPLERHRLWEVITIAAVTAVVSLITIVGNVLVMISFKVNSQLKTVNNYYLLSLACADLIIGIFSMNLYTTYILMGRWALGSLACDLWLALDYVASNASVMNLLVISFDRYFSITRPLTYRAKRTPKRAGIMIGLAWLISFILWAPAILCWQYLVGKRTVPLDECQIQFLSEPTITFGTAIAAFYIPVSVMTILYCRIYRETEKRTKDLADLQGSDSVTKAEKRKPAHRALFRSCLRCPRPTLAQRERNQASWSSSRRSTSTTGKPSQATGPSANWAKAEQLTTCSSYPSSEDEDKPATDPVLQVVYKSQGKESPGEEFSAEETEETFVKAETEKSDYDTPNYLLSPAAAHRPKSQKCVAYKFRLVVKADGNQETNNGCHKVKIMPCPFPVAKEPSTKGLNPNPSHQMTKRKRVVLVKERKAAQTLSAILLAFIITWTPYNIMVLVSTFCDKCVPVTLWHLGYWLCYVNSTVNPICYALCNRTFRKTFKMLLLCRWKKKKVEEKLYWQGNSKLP

Ki (Histamine H1) [nM]	Ki (Serotonin 5-HT6) [nM]	Ki (Serotonin 5-HT1D) [nM]	Ki (α-Adrenergic α2C) [nM]	Ki (Serotonin 5-HT2B) [nM]	Ki (Serotonin 5-HT1A) [nM]	Ki (α-Adrenergic α2B) [nM]	Ki (Serotonin 5-HT2A) [nM]	Ki (α-Adrenergic α2A) [nM]	Ki (Sigma σ2) [nM]	Ki (Serotonin 5-HT7) [nM]	Ki (Serotonin 5-HT1B) [nM]	SMILES	other results
50	155	85	173	87	596	413	24	228	2230	100	1360	CN1CCc2c(c3cccc4c3n2-c2ccccc2CC4)C1 [Compound 6a, reference compound]	Ki (α-Adrenergic α1D): 595 nM; Ki (Serotonin transporter; Transporters: Serotonin): 2190 nM; Ki (Histamine H2): 81 nM; Ki (Dopamine D2): 835 nM; Ki (Opioid κ): 2180 nM; Ki (Serotonin 5-HT2C): 10 nM; Ki (α-Adrenergic α1B): 3.31 µM; Ki (Muscarinic M5): 5.17 µM; Ki (Muscarinic M1): 4.46 µM; Ki (Dopamine D5): 581 nM; Ki (α-Adrenergic α1A): 2370 nM; Ki (Serotonin 5-HT1E): 4.04 µM; Ki (Serotonin 5-HT5A): 750 nM; Ki (Muscarinic M3): 3.76 µM
48	273	29	770	57	375	2190	736	1800	520	212	715	CN1CCc2c(c3cccc4c3n2Cc2ccccc2C4)C1 [Compound 13a]	binding, in words (Histamine H1; H1, text summary of Table 1): strong binding; binding, in words (Serotonin 5-HT6; 5-HT6, text summary of Table 1): moderate binding; binding, in words (Serotonin 5-HT1D; summary of Table 1): strong binding; Ki (Dopamine D3): 1500 nM; Ki (Serotonin transporter): 2190 nM; Ki [1]: > 10 µM; binding, in words (Serotonin 5-HT2B; summary of Table 1): strong binding; binding, in words (Serotonin 5-HT1A; summary of Table 1): moderate binding; binding, in words (dopamine receptors): neither of the two compounds 13a and 13b binds significantly; binding, in words (Serotonin 5-HT7; 5-HT7, text summary of Table 1): moderate binding
